Among the data in US11008572B2, “Methods and compositions for modulating splicing” (SKYHAWK THERAPEUTICS, INC., priority 2017, dated 2021) are IC50 and EC50 values, retold here.

Experiment [1] has as its system FOXM1^A2 mRNA and FOXM1^BC mRNA. The experiment can be described thus: Splicing assay (FOXM1), qPCR of isoform mRNAs. It counts as cell-based. The procedure: Various cells lines were treated with the SMSMs described herein. RNA was then isolated, cDNA synthesized, qPCR performed and the levels of various mRNA targets of the SMSMs were determined. In some instances, RNA was isolated, cDNA synthesized, qPCR performed and the levels of mRNA isoforms in the various cell samples were determined.
On the day of the experiment, a 96-well plate was seeded with the cell lines of interest. The cells were diluted with full growth media to a concentration of 2.0×10^5 cells/mL and 100 μL of cells were added to each well (20,000 cells per well). The cells were treated with a compound immediately after plating.
The compounds were then added to the cell plate using the HP compound dispenser. In the initial experiment, a top concentration of 10 μM and an 8 point 4-fold dilution scheme was used. The stock compounds were made at a concentration of 5 mM, and the DMSO concentration was set to 0.2%. DMSO was used to normalize all the compound-containing wells and the untreated cells.
The treated cells were incubated at 37° C. in a 5% CO2 incubator for the desired amount of time. Plates were placed in a plastic bag with a wet paper towel to prevent evaporation.
RNA was isolated using the Cells to CT kit (ThermoFisher, AM1728). The cells were washed once with 100 μL cold PBS. 50 μL of lysis buffer was added to each well/tube (49.5 μL lysis buffer+0.5 μL DNase I per well/tube). The lysis reaction was mixed and incubated at room temperature for 5 minutes. 5 μL of stop solution was added directly into each cell lysis reaction and mixed by pipetting up and down 5 times. The plates/tubes were incubated at room temperature for 2 minutes then placed on ice if the cDNA synthesis was to be performed immediately. Otherwise, the plates/tubes were stored at −80° C. cDNA synthesis reactions were then performed. Reverse Transcription (RT) Master mix was prepared according to the table below.
40 μL RT master mix was added to PCR tubes or plate wells. 10 μL of RNA was added to each tube/well. The RT thermal cycler program was then run and tubes or plate wells were incubated at 37° C. for 1 hour, then at 95° C. for 5 minutes to deactivate the enzyme.
The qPCR was performed using a QuantStudio 6 instrument (ThermoFisher) and the following cycling conditions and according to the tables below. All samples and standards were analyzed in triplicate. Cycle 1: 2 minutes at 50° C. Cycle 2: 10 minutes at 95° C. Cycle 3 (repeat 40 times): 15 seconds at 95° C., 1 minute at 60° C.
The determined isoform 2and isoform 1quantities were then be used to determine the isoform 2: […] at the various compound concentrations. The PPIA quantities were used in the normalization to account of cell proliferation effects of the compounds.
The dilution necessary to make the top standard is calculated. A top concentration 200,000,000 copies/μL of the stock plasmid was prepared in TE buffer. A series of 10-fold dilutions, also in TE, were then made. A total of 5 μL of each standard was used in a qPCR well to generate samples containing 109 copies, […], 10^7copies, 10^6 copies, 10^5 copies, 10^4 copies, 10^3 copies, 10^2 copies, 10^1copies, and 0 copies.
An assay to measure the FOXM1^A2 mRNA and FOXM1^BC mRNA, or MADD^WT (isoform 4) mRNA and MADD^Ex16 (isoform 3) mRNA, or MAPTau^4R mRNA and MAPTau^3R mRNA simultaneously in cell wells was performed. The RNA values were measured relative to DMSO control and also included a housekeeping gene, PPIA to ensure data was consistent. The mRNA values were measured after 24 hours of incubation with the SMSM compounds.
A general note: Real-time PCR tracks product formation cycle by cycle.

The test system of a further experiment is A-673 cells. The experiment can be described thus: Cell viability, crystal violet staining. It counts as cell-based. To be noted: Homo sapiens. In short, it runs like this: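 Readout is absorbance at 570 nm of crystal violet, taken up in 0.1 M sodium citrate in 50% ethanol after staining with 0.5% dye in 25% methanol. Plates held 5×10^3 cells per well, and compounds were added one day after seeding for 72 hours. Data are relative to vehicle, mean±SE.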

Where [2] appears, read: 24 h, FoxM1 BC mRNA decrease (exon included), 0.1-1000 nM, 24 hours, read-out: Splice IC50 (nM), FoxM1 BC mRNA decrease (exon included).
The mark [3] stands for this setting: FoxM1 A mRNA increase (exon excluded), 0.1-1000 nM, 24 hours, read-out: Splice EC50 (nM), FoxM1 A mRNA increase (exon excluded).
Setting [4] is: A673, cell viability, read-out: A-673 IC50 (nM), Cell viability.
Setting [5] is: FoxM1 BC mRNA decrease (exon included), read-out: Splice IC50 (nM) FoxM1 BC mRNA decrease (exon included).
The mark [6] stands for this setting: read-out: Splice EC50 (nM) FoxM1 A mRNA increase (exon excluded).
Where [7] appears, read: A673, cell viability, read-out: A-673 IC50 (nM) Cell viability.

Where two headings read alike, the source gives them in different places.

What is called EC50 is the concentration that produces a half-maximal response. Consider `Oc1cc(-c2nnn[nH]2)ccc1-c1ccc(O[C@@H]2C[C@H]3CC[C@@H](C2)N3)nn1` [compound 254, 2-(6-(((1R,3s,5S)-8-azabicyclo[3.2.1]octan-3-yl)oxy)pyridazin-3-yl)-5-(1H-tetrazol-5-yl)phenol], for which the IC50 (in experiment [1] (setting [2]); in the experiment on A-673 cells (setting [4])) was above 1000 nM throughout. Besides, in experiment [1] (setting [3]), the EC50 is above 1000 nM.

Turning to `Cc1cn(-c2ccc(-c3ccc(N(C)[C@@H]4C[C@H]5CC[C@@H](C4)N5)nn3)c(O)c2)c(C)n1` [compound 231, 2-(6-(((1R,3s,5S)-8-azabicyclo[3.2.1]octan-3-yl)(methyl)amino)pyridazin-3-yl)-5-(2,4-dimethyl-1H-imidazol-1-yl)phenol], the IC50 in experiment [1] (setting [2]) is 501 to 1000 nM; in the experiment on A-673 cells (setting [4]), above 1000 nM. For the same compound, in experiment [1] (setting [3]), the EC50 lay in the range of 251 to 500 nM.

As for `CN(c1ccc(-c2ccc(-n3cccn3)cc2O)nn1)[C@@H]1C[C@H]2CC[C@@H](C1)N2` [compound 220, 2-(6-(((1R,3s,5S)-8-azabicyclo[3.2.1]octan-3-yl)(methyl)amino)pyridazin-3-yl)-5-(1H-pyrazol-1-yl)phenol], the IC50 (in experiment [1] (setting [2]); with A-673 cells (setting [4])) was 10 to 100 nM throughout. Further, the EC50 in experiment [1] (setting [3]) is below 10 nM.

Consider `CC1(C)CC(N(c2ccc(-c3ccc(-c4cn[nH]c4)cc3O)nn2)C2CCC2)CC(C)(C)N1` [compound 130, 2-(6-(cyclobutyl(2,2,6,6-tetramethylpiperidin-4-yl)amino)pyridazin-3-yl)-5-(1H-pyrazol-4-yl)phenol], for which the IC50 (in experiment [1] (setting [5]); in the experiment on A-673 cells (setting [7])) was above 1000 nM throughout. In addition, the EC50 in experiment [1] (setting [6]) was above 1000 nM.

With `Oc1cc(-c2cn[nH]c2)ccc1-c1ccc(N2CCC3CNCCC32)nn1` (stereo not shown) [compound 131, 2-(6-(octahydro-1H-pyrrolo[3,2-c]pyridin-1-yl)pyridazin-3-yl)-5-(1H-pyrazol-4-yl)phenol], the IC50 in experiment [1] (setting [5]) is 251 to 500 nM; in the experiment on A-673 cells (setting [7]), above 1000 nM. Further, the EC50 in experiment [1] (setting [6]) lay in the range of 101 to 250 nM.

On to `Cc1nccn1-c1ccc(-c2ccc(N(C)[C@@H]3C[C@H]4CC[C@@H](C3)N4)nn2)c(O)c1` [compound 230, 2-(6-(((1R,3s,5S)-8-azabicyclo[3.2.1]octan-3-yl)(methyl)amino)pyridazin-3-yl)-5-(2-methyl-1H-imidazol-1-yl)phenol], for which the IC50 in experiment [1] (setting [2]) is 501 to 1000 nM; with A-673 cells (setting [4]), above 1000 nM. The EC50 in experiment [1] (setting [3]) was in the range of 101 to 250 nM.

For the compound `CN(c1ccc(-c2cc3oc(C(=O)NC4CC4)cc3cc2O)nn1)[C@@H]1C[C@H]2CCC[C@@H](C1)N2` [compound 296, 6-(6-(((1R,3s,5S)-9-azabicyclo[3.3.1]nonan-3-yl)(methyl)amino)pyridazin-3-yl)-N-cyclopropyl-5-hydroxybenzofuran-2-carboxamide], the IC50 lay within 10 to 100 nM in experiment [1] (setting [2]) and 101 to 250 nM with A-673 cells (setting [4]). For the same compound, the EC50 in experiment [1] (setting [3]) is below 10 nM.

On to `COc1cc(-c2ccc(-c3ccc(N(C)[C@H]4C[C@]5(C)CC[C@](C)(C4)N5)nn3)c(O)c2)cnn1` [compound 191, 2-(6-(((1R,3s,5S)-1,5-dimethyl-8-azabicyclo[3.2.1]octan-3-yl)(methyl)amino)pyridazin-3-yl)-5-(6-methoxypyridazin-4-yl)phenol], for which the IC50 in experiment [1] (Homo sapiens, A673, 24 h, A-673 cells, 24 hours, table does not say EC50 or IC50, read-out: FOXM1) was below 1 nM; in experiment [1] (Homo sapiens, A-375, 24 h, A-375 cells, 24 hours, table does not say EC50 or IC50, read-out: FOXM1), 1 to 10 nM; in experiment [1] (Homo sapiens, K562, 24 h, K-562 cells, 24 hours, table does not say EC50 or IC50, read-out: FOXM1) it was 1 to 10 nM; in experiment [1] (Homo sapiens, MDA-MB-468, 24 h, MDA-MB-468 cells, 24 hours, table does not say EC50 or IC50, read-out: FOXM1), 1 to 10 nM; in experiment [1] (Homo sapiens, NCI-H358, 24 h, NCI-H358 cells, 24 hours, table does not say EC50 or IC50, read-out: FOXM1), 1 to 10 nM; in experiment [1] (Homo sapiens, PANC-1, 24 h, PANC-1 cells, 24 hours, table does not say EC50 or IC50, read-out: FOXM1), 101 to 200 nM. Moreover, the IC50 in experiment [1] (Homo sapiens, PC-3, 24 h, PC-3 cells, 24 hours, table does not say EC50 or IC50, read-out: FOXM1) was 11 to 100 nM; in experiment [1] (Homo sapiens, U-87 MG, 24 h, U-87MG cells, 24 hours, table does not say EC50 or IC50, read-out: FOXM1), 11 to 100 nM; with A-673 cells (setting [7]), below 10 nM; in the experiment on A-673 cells (A673, read-out: A-673 cell viability (IC50)) it was below 1 nM.

Regarding `CN(c1ccc(-c2ccc(-c3cn[nH]c3)cc2O)nn1)[C@H]1C[C@H]2C[C@@H]1CN2` [compound 146, 2-(6-(((1R,4R,5S)-2-azabicyclo[2.2.1]heptan-5-yl)(methyl)amino)pyridazin-3-yl)-5-(1H-pyrazol-4-yl)phenol], the IC50 is 251 to 500 nM in experiment [1] (setting [5]) and above 1000 nM in the experiment on A-673 cells (setting [7]). Further, the EC50 in experiment [1] (setting [6]) lay in the range of 101 to 250 nM.

On to `[2H]C([2H])([2H])n1ccc(-c2ccc(-c3ccc(N(C)C4CC5CCCC(C4)N5)nn3)c(O)c2)cc1=O` [compound 284, 4-(4-(6-(((1R,3s,5S)-9-azabicyclo[3.3.1]nonan-3-yl)(methyl)amino)pyridazin-3-yl)-3-hydroxyphenyl)-1-(methyl-d3)pyridin-2(1H)-one], for which the IC50 (in experiment [1] (setting [2]); with A-673 cells (setting [4])) was below 10 nM each time. Besides, the EC50 in experiment [1] (setting [3]) was above 1000 nM.

In the case of `CN(c1ccc(-c2ccc(-c3ccn(C)c(=O)n3)cc2O)nn1)[C@H]1C[C@]2(C)CC[C@](C)(C1)N2` [compound 180, 4-(4-(6-(((1R,3s,5S)-1,5-dimethyl-8-azabicyclo[3.2.1]octan-3-yl)(methyl)amino)pyridazin-3-yl)-3-hydroxyphenyl)-1-methylpyrimidin-2(1H)-one], the IC50 lay in the range of 10 to 100 nM in experiment [1] (setting [5]) and 101 to 250 nM in the experiment with A-673 cells (setting [7]). Moreover, the EC50 in experiment [1] (setting [6]) lay in the range of 10 to 100 nM.

`CN(c1ccc(-c2ccc(-n3nccn3)cc2O)nn1)[C@@H]1C[C@H]2CCC[C@@H](C1)N2` [compound 275, 2-(6-(((1R,3s,5S)-9-azabicyclo[3.3.1]nonan-3-yl)(methyl)amino)pyridazin-3-yl)-5-(2H-1,2,3-triazol-2-yl)phenol]: the IC50 (in experiment [1] (setting [2]); with A-673 cells (setting [4])) was below 10 nM throughout. Moreover, the EC50 in experiment [1] (setting [3]) was below 10 nM.

For `Cc1ccn(-c2ccc(-c3ccc(O[C@@H]4C[C@H]5CC[C@@H](C4)N5)nn3)c(O)c2)n1` [compound 250, 2-(6-(((1R,3s,5S)-8-azabicyclo[3.2.1]octan-3-yl)oxy)pyridazin-3-yl)-5-(3-methyl-1H-pyrazol-1-yl)phenol], the IC50 was 101 to 250 nM in experiment [1] (setting [2]) and 501 to 1000 nM in the experiment on A-673 cells (setting [4]). Moreover, the EC50 in experiment [1] (setting [3]) lay in the range of 10 to 100 nM.

Regarding `CN(c1ccc(-c2ccc(-c3cn[nH]c3)cc2O)nn1)[C@H]1[C@@H]2CNC[C@@H]21` [compound 137, 2-(6-(((1R,5S,6s)-3-azabicyclo[3.1.0]hexan-6-yl)(methyl)amino)pyridazin-3-yl)-5-(1H-pyrazol-4-yl)phenol], the IC50 (in experiment [1] (setting [5]); in the experiment on A-673 cells (setting [7])) was above 1000 nM in each case. The EC50 in experiment [1] (setting [6]) is above 1000 nM.
